Like-named read-outs stand apart in the source and are kept apart here.

For experiment [1], the target named is T1, T315I ABL1 (Homo sapiens, UniProt P00519, T315I).
T1 construct: The catalytic domains of ABL1 kinases (residues 27 to the C-termini) were N-terminal His tagged; His tag (N); purchased Upstate Cell Signaling Solutions; host or cells: insect cells (baculovirus)
The experiment can be described thus: T315I ABL1 HTRF assay. Format: biochemical. As to conditions: 10 μM ATP; read-out: EXAMPLE G T315I Abl IC50. The protocol:
(§1) Compounds herein described were tested for inhibitory activity of ABL1 kinase (wild-type and T315I mutant) as described below. The catalytic domains of ABL1 kinases (residues 27 to the C-termini) were N-terminal His tagged and expressed by baculovirus in insect cells and purified. These were purchased in purified form from Upstate Cell Signaling Solutions. ABL1 and T315I ABL1 catalyze the phosphorylation of p28. The phosphorylated p28 is detected by Homogeneous Time Resolved Fluorescence (HTRF). IC50s of compounds were measured for each kinase in the reactions that contain: 1-2 nM ABL1 or T315I ABL1, 500 nM peptide, 35 μM ATP for ABL1 and 10 μM ATP for T315I ABL1, 2.0% DMSO in assay buffer containing 50 mM Tris, pH 7.8, 100 mM NaCl, 10 mM MgCl2, 5 mM DTT, 0.6 mg/mL BSA. Reactions proceed at room temperature for one and half hour and were stopped by adding, 20 μL additional 50 mM NaCl, 0.4 mg/mL BSA, 45 mM EDTA, 200 nM SA-APC, 4 nM Eu—Py20 in assay buffer. The plates were incubated at room temperature for 40 min and HTRF was then measured on a plate reader.

Experiment [2] has as its target T2, ABL1 kinase (wild-type) (Homo sapiens, UniProt P00519).
T2 construct: The catalytic domains of ABL1 kinases (residues 27 to the C-termini) were N-terminal His tagged; His tag (N); purchased Upstate Cell Signaling Solutions; host or cells: insect cells (baculovirus)
Put plainly: ABL1 HTRF assay (wild-type). As to conditions: 35 μM ATP; read-out: EXAMPLE G WT Abl IC50. Format: biochemical. The protocol: as §1

Experiment [3] has as its target T3, human JAK2 (a.a. 828-1132) (Homo sapiens, UniProt O60674).
T3 construct: JAK2 (a.a. 828-1132); His tag (N); made in house; host or cells: insect cells (baculovirus)
Put plainly: In vitro JAK kinase assay (HTRF), JAK2. It counts as biochemical. Particulars: JAK2, 30 μM ATP; read-out: EXAMPLE A HTS-JAK2 HTRF-2 IC50. The method, boiled down: (§2)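 His-tagged catalytic domains from baculovirus-infected insect cells phosphorylated 500 nM biotinylated peptide in 50 mM Tris pH 7.8, 100 mM NaCl, 5 mM DTT, 0.01% BSA for 1 h at room temperature. ATP was 90 μM (JAK1), 30 μM (JAK2), 3 μM (JAK3). Detection used Eu-Py20/SA-APC; IC50s were derived.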
Background: Time-resolved FRET reads energy transfer from a long-lived donor to a nearby acceptor.

Experiment [4] has as its target T4, human JAK1 (a.a. 837-1142) (Homo sapiens, UniProt P23458).
T4 construct: human JAK1 (a.a. 837-1142); His tag (N); made in house; host or cells: insect cells (baculovirus)
Put plainly: In vitro JAK kinase assay (HTRF), JAK1. It counts as biochemical. Particulars: JAK1, 90 μM ATP; read-out: EXAMPLE A JAK2-JAK1 HTRF-2 IC50. The method, boiled down:
as §2

Experiment [5] concerns the target TF1-BCRABL1 cells (Homo sapiens, UniProt P00519). Put plainly: ABL1 cell based assay: viability of ABL1-dependent cell line (CellTiter-Glo). The essentials: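 ABL1-dependent cells plated at 3000 per well in RPMI 1640 with 10% FBS and exposed to compounds for 72 h at 37° C, 5% CO2, 0.2% DMSO final. Viability read by CellTiter-Glo luminescence; duplicate or more.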
A general note: Cellular ATP, detected with luciferase, serves as a proxy for viable cell number.

The target of experiment [6] is T5, human JAK3 (a.a. 781-1124) (Homo sapiens, UniProt P52333).
T5 construct: JAK3 (a.a. 781-1124); His tag (N); made in house; host or cells: insect cells (baculovirus)
Put plainly: In vitro JAK kinase assay (HTRF), JAK3. Format: biochemical. Particulars: JAK3, 3 μM ATP; read-out: EXAMPLE A JAK2-JAK3 HTRF-2 IC50. The method, boiled down: as §2

The subject of experiment [7] is JAK2_INA61 (cancer cell line dependent on cytokines and JAK/STAT signal transduction). Put plainly: Cellular assay: viability of cytokine-dependent cancer cell line (CellTiter-Glo). It counts as cell-based. Particulars: 72 hours, read-out: EXAMPLE B JAK2_INA61 IC50. The protocol:
One or more compounds herein were tested for inhibitory activity of JAK targets according to at least one of the following cellular assays.
Compounds were added to the cells in DMSO/media (final concentration 0.2% DMSO) and incubated for 72 hours at 37° C., 5% CO2. The effect of compound on cell viability was assessed using the CellTiter-Glo Luminescent Cell Viability Assay (Promega) followed by TopCount (Perkin Elmer, Boston, Mass.) quantitation. Potential off-target effects of compounds were measured in parallel using a non-JAK driven cell line with the same assay readout. […] All experiments were performed in duplicate.

The mark [8] stands for this setting: 72 hours, cell viability, read-out: EXAMPLE F JAK2-TF1-BCRABL1 IC50.
[9] abbreviates: TF1_BCRABL cells, read-out: EXAMPLE H TF1_BCRABL IC50.

T5 sequence (P52333 781-1124): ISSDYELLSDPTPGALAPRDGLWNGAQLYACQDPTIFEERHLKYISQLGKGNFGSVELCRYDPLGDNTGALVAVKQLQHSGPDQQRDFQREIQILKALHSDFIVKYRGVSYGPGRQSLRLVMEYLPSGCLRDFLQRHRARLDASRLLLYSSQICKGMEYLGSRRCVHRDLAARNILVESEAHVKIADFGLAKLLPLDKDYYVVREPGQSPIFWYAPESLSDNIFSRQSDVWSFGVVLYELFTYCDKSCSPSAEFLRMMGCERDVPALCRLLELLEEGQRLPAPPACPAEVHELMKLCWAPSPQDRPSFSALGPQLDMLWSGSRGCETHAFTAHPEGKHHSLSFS
T4 sequence (P23458 849-1154): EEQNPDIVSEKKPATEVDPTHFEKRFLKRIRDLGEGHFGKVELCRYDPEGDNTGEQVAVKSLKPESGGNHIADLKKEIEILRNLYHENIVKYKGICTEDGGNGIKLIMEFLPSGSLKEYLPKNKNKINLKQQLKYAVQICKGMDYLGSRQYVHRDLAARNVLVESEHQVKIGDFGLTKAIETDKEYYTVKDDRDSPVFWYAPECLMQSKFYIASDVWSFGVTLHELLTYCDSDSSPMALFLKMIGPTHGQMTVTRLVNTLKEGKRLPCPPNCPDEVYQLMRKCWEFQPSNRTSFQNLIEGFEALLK
T3 sequence (O60674 828-1132): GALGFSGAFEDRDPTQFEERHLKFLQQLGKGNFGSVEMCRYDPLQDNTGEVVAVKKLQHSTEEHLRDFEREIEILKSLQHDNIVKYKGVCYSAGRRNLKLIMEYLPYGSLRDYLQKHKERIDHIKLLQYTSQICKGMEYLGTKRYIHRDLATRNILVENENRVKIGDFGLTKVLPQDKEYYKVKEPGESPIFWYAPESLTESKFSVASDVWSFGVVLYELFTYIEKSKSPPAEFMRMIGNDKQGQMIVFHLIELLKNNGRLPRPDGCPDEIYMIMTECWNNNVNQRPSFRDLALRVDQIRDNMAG

With `Cc1ccc(NC(=O)c2cc(N3CCN(C)CC3)cc(C(F)(F)F)c2)cc1-c1ccc2c(c1)[nH]c1ncncc12` [Example 26, 3-(4-Methylpiperazin-1-yl)-N-[4-methyl-3-(9H-pyrimido[4,5-b]indol-7-yl)phenyl]-5-(trifluoromethyl)benzamide bis(trifluoroacetate)], the IC50 in experiment [1] was under 190 nM; in experiment [2] it was under 200 nM; in experiment [3], at most 500 nM; in experiment [4] it was at most 500 nM; in experiment [6], at most 500 nM. Besides, the GI50 is at most 500 nM in experiment [5] (setting [8]) and under 180 nM in experiment [5] (setting [9]).
As for `Cc1ccc(C(=O)Nc2cccc(C(F)(F)F)c2)cc1-c1ccc2c(c1)[nH]c1ncncc12` [Example 52, 4-methyl-3-(9H-pyrimido-[4,5-b]indol-7-yl)-N-[3-(trifluoromethyl)phenyl]benzamide], the IC50 in experiment [1] is under 190 nM; in experiment [2], under 200 nM; in experiment [3], at most 500 nM; in experiment [7], 500 to 1000 nM; in experiment [4], at most 500 nM; in experiment [6], at most 500 nM. Besides, the GI50 was at most 500 nM in experiment [5] (setting [8]) and under 180 nM in experiment [5] (setting [9]).
Turning to `Cc1ccc(NC(=O)c2cccc(C(F)(F)F)c2)cc1-c1ccc2[nH]c3ncncc3c2c1` [Example 40, N-[4-Methyl-3-(9H-pyrimido[4,5-b]indol-6-yl)phenyl]-3-(trifluoromethyl)benzamide], the IC50 in experiment [1] was under 190 nM; in experiment [2], under 200 nM; in experiment [3], at most 500 nM; in experiment [7], at most 500 nM; in experiment [4], at most 500 nM; in experiment [6], 500 to 1000 nM. The results for the GI50 in experiment [5] (setting [8]) and in experiment [5] (setting [9]) were at most 500 nM and under 180 nM, respectively.
Consider `Cc1ccc(C(=O)Nc2cncc(C(F)(F)F)c2)cc1-c1ccc2c(c1)[nH]c1ncncc12` [Example 66, 4-Methyl-3-(9H-pyrimido[4,5-b]indol-7-yl)-N-[5-(trifluoromethyl)pyridin-3-yl]-benzamide], for which the IC50 in experiment [1] is under 190 nM; in experiment [2], under 200 nM; in experiment [3] it was at most 500 nM; in experiment [7], 500 to 1000 nM; in experiment [4], at most 500 nM; in experiment [6], at most 500 nM. Moreover, the GI50 is at most 500 nM in experiment [5] (setting [8]) and under 180 nM in experiment [5] (setting [9]).
`O=C(Nc1cccc(C(F)(F)F)c1)c1ccc(Cl)c(-c2ccc3c(c2)[nH]c2ncncc23)c1` [Example 58, 4-chloro-3-(9H-pyrimido-[4,5-b]indol-7-yl)-N-[3-(trifluoromethyl)phenyl]-benzamide]: the IC50 in experiment [1] was under 190 nM; in experiment [2], under 200 nM; in experiment [3] it was at most 500 nM; in experiment [7], 500 to 1000 nM; in experiment [4], at most 500 nM; in experiment [6], at most 500 nM. The figures for the GI50 in experiment [5] (setting [8]) and in experiment [5] (setting [9]) were at most 500 nM and under 180 nM, respectively.
Turning to `Cc1ccc(NC(=O)Nc2cccc(C(F)(F)F)c2)cc1-c1ccc2c(c1)[nH]c1ncncc12` [Example 47, N-[4-Methyl-3-(9H-pyrimido[4,5-b]indol-7-yl)phenyl]-N′-[3-(trifluoromethyl)-phenyl]urea], the IC50 was 500 to 1000 nM in experiment [3], over 1000 nM in experiment [7], at most 500 nM in experiment [4] and at most 500 nM in experiment [6]. Further, the GI50 in experiment [5] (setting [8]) is at most 500 nM.
For the compound `Cc1ccc(C(=O)N[C@@H](C)c2ccccc2)cc1-c1ccc2c(c1)[nH]c1ncncc12` [Example 64, 4-methyl-N-[(1S)-1-phenylethyl]-3-(9H-pyrimido[4,5-b]indol-7-yl)benzamide], the IC50 in experiment [3] is over 1000 nM; in experiment [7] it was over 1000 nM; in experiment [4], over 1000 nM; in experiment [6], at most 500 nM. Besides, the GI50 in experiment [5] (setting [8]) was 500 to 1000 nM.
As to `COc1cccc(C(=O)Nc2ccc(C)c(-c3ccc4c(c3)[nH]c3ncncc34)c2)c1` [Example 11, 3-methoxy-N-[4-methyl-3-(9H-pyrimido[4,5-b]indol-7-yl)-phenyl]benzamide], the IC50 in experiment [3] is 500 to 1000 nM; in experiment [7], over 1000 nM; in experiment [4] it was at most 500 nM; in experiment [6], at most 500 nM. For the same compound, the GI50 in experiment [5] (setting [8]) was at most 500 nM.
Take `Cc1cnc(NC(=O)c2ccc(C)c(-c3ccc4c(c3)[nH]c3ncncc34)c2)s1` [Example 57, 4-methyl-N-(5-methyl-1,3-thiazol-2-yl)-3-(9H-pyrimido-[4,5-b]indol-7-yl)benzamide]: the IC50 in experiment [3] was over 1000 nM; in experiment [7], over 1000 nM; in experiment [4], at most 500 nM; in experiment [6] it was over 1000 nM. In addition, the GI50 in experiment [5] (setting [8]) is at most 500 nM.
Consider `O=C(Nc1cccc(-c2ccc3c(c2)[nH]c2ncncc23)c1)c1cccc(C(F)(F)F)c1` [Example 14, N-[3-(9H-pyrimido[4,5-b]-indol-7-yl)phenyl]-3-(trifluoro-methyl)benzamide], for which the IC50 is at most 500 nM in experiment [3], over 1000 nM in experiment [7], at most 500 nM in experiment [4] and over 1000 nM in experiment [6]. In addition, in experiment [5] (setting [8]), the GI50 is 500 to 1000 nM.
Turning to `Cc1ccc(NC(=O)c2cccc(Cl)c2)cc1-c1ccc2c(c1)[nH]c1ncncc12` [Example 15, 3-chloro-N-[4-methyl-3-(9H-pyrimido[4,5-b]indol-7-yl)-phenyl]benzamide], the IC50 in experiment [3], in experiment [7], in experiment [4] and in experiment [6] was at most 500 nM each time. In addition, the GI50 in experiment [5] (setting [8]) is at most 500 nM.
As for `N#Cc1ccc(C(=O)Nc2cccc(C(F)(F)F)c2)cc1-c1ccc2c(c1)[nH]c1ncncc12` [Example 51, 4-Cyano-3-(9H-pyrimido[4,5-b]indol-7-yl)-N-[3-(trifluoromethyl)phenyl]-benzamide], the IC50 in experiment [3] was at most 500 nM; in experiment [7], over 1000 nM; in experiment [4] it was at most 500 nM; in experiment [6] it was over 1000 nM. The GI50 in experiment [5] (setting [8]) is at most 500 nM.

As a reminder, the IC50 is the concentration needed to halve the response being measured.

The record behind these values is patent US8513270B2, “Substituted heterocycles as Janus kinase inhibitors” (Incyte Corporation, priority 2006, dated 2013).
